According to article PMC10686989, “Distinct activation mechanisms of β-arrestin-1 revealed by ^19F NMR spectroscopy” (Nature Communications, 2023):

What was measured:
βarr1 = target: T1, βarr1 (Homo sapiens, UniProt P49407, C125S/C140L/C150V/C242V/C251V/C269S/C59V/D390C); assay: 19F CEST experiments on βarr1; type: biochemical
T1 construct: we started from a full-length functional cysteine-less βarr1 construct[20]; 6xHis-tag with SSG linker and thrombin cleavage site (N, cleaved yes); made in house; host or cells: E. coli BL21(DE3)
Protocol: The ^19F CEST experiments were acquired at 298 K on Bruker AVANCE III HD 800 MHz spectrometer equipped a ^1H-^19F/^13C/^15N TCI triple resonance cryogenic probe. Sample preparation was the same as for the 1D ^19F NMR experiments, and the protein concentrations were in the range of 50–100 μM depending on the expression levels of different constructs. For each ^19F-labeled sample, a series of 1D saturation transfer experiments were recorded using a 0.2 s recovery delay followed by a 1.8 s saturation period using irradiation field strengths B1 of 10 Hz. For each sample, the positions and spacings of the carrier frequencies for saturation were determined based on the multiple signals observed in the 1D ^19F spectra, normally covering the chemical shift ranges of the signals of interest. The data were collected with a spectral width of 15,000 Hz and the scan number in the range of 400–1500. The spectra were processed and analyzed using the Bruker Topspin 4.2.0 software. The CEST profiles were drawn using GraphPad Prism® 9.

[1] = test system: βarr1-3Q (K232Q/R236Q/K250Q); assay: 1D 19F NMR of PIP2-binding deficient mutant; type: biochemical, human; details: H295C site
Protocol: The ^19F-labeled βarr1 was diluted to 50 μM using buffer E before incubation with peptides or PIP2. The V2Rpp, β2AR-GRK2pp/GRK6pp or PIP2 were added at 1.2-fold, 3-fold, and 1.5-fold molar ratio excess to the protein, respectively. For the membrane-bound sample, the reconstituted nanodiscs were added at twofold molar ratio of βarr1. All complexes were incubated at 25 °C for 1 h, and the freshly prepared samples were immediately subjected to ^19F NMR experiments.
NMR samples were prepared in buffer E to a final volume of 140 μL, supplemented with 1 mM DTT, 10% D2O for field lock, and 1 μM sodium trifluoroacetate (STFA) as the internal chemical shift reference. All samples were sterile-filtered and loaded into sterile 3 mm NMR microtubes to prevent microbial contamination. Final protein concentrations vary for different constructs, depending on their expression levels and stabilities, but all in the range of 20–50 μM.
(§1) All ^19F NMR spectra were recorded at 298 K using a Bruker AVANCE III HD 800 MHz spectrometer equipped with a ^1H-^19F/^13C/^15N TCI triple resonance cryogenic probe. […] The carrier frequency was set to −68.0 ppm and the spectra were recorded with 4k points and a spectral width of 15,000 Hz. […]
(§2) All NMR data were analyzed using the MestraNova 12.0.0 software (https://mnova.pl). […] Peak intensities, integrated peak area and linewidths were determined based on the fitted results.

βarr1-1-395 = assay: 1D 19F NMR of distal CT-deleted construct; type: biochemical, human; details: H295C site; PIP2
Excerpt: The cysteine-less mutant (C59V/C125S/C140L/C150V/C242V/C251V/C269S) of the long splice variant of human βarr1 was used for introduction of single site cysteine mutation for ^19F labeling. The sequence was codon-optimized for expression in Escherichia coli and cloned into a pET-28a(+) vector (Novagen), with an N-terminal 6xHis-tag, followed by an SSG linker and a thrombin cleavage site. All mutants, including the 1–382 (βarr1-ΔCT) and 1–395 truncation constructs, were generated using site-directed mutagenesis kits (Thermo Fisher). Primer sequences for generating the mutants are listed in Supplementary Table 4.
The ^19F-labeled βarr1 was diluted to 50 μM using buffer E before incubation with peptides or PIP2. The V2Rpp, β2AR-GRK2pp/GRK6pp or PIP2 were added at 1.2-fold, 3-fold, and 1.5-fold molar ratio excess to the protein, respectively. […]
as §1, §2

T1 sequence (P49407 whole entry C59V/C125S/C140L/C150V/C242V/C251V/C269S/D390C): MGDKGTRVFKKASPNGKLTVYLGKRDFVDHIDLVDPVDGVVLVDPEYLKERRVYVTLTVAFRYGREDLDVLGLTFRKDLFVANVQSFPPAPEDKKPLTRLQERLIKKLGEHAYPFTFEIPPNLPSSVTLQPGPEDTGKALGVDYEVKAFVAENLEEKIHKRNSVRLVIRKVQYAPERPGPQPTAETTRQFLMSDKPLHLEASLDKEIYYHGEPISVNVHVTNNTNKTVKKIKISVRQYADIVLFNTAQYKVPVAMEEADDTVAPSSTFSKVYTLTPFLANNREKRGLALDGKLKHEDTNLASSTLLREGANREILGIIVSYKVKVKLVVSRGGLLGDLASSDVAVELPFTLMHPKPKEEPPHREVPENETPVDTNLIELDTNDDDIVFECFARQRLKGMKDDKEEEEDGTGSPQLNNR

Structure (SMILES): CCCCCCCC(=O)OC[C@H](COP(=O)(O)O[C@@H]1[C@H](O)[C@H](O)[C@@H](OP(=O)(O)O)[C@H](OP(=O)(O)O)[C@H]1O)OC(=O)CCCCCCC [PIP2, diC8-PI(4,5)P2]
- Intermediate S* state by CEST (βarr1; D390C site): induces an intermediate conformational species designated as S*
- Intermediate S* state by CEST (βarr1; E404C and T6C sites): induces the conformational equilibrium to shift from the basal towards an intermediate S* state
- Intermediate S* state by CEST (βarr1; H295C site): present in relatively large fraction in both the basal and PIP2-bound states
- Transition to S2 state [1]: such spectral changes were not observed
- Transition to S2 state (βarr1-1-395): promotes the S2 conformation to an extent comparable with full-length βarr1
